From US5439933A (priority 1993, dated 1995)
Values after ≈ are worked out from the molar mass of the structure shown. Where two headings read alike, the source gives them in different places. Starred links: 1 amine or outer side, 2 acyl side, 3 side chain; linkers in the order of their positions; H or OH if unused. Positions of bridges follow the written chain, without caps; N, C: chain ends. Non-standard residues stand in square brackets, D forms with d. Residues, ends and D or L forms follow the SMILES beside them. Chains are numbered I, II in the order given. Actinocin(9to1) = Cc1c2oc3c(C)ccc(C(=O)[*:1])c3nc-2c(C(=O)[*:2])c(N)c1=O; NMeV = CN[C@H](C(=O)O)C(C)C; Sar = CNCC(=O)O

How the values were obtained:
[1] = test system: L1210 murine leukemia cells; test: Cell proliferation assay (cell counts), L1210; assay type: cell-based; conditions: Mus musculus; Table 6; L1210; read-out: IC50 L1210
Method: (§1) Tolytoxin and the other new scytophycin compounds are potent anticancer and antifungal agents. The cytotoxicity of tolytoxin and other new scytophycin compounds was determined using a cell proliferation assay, which tested the effect of the compounds on increases in cell numbers.
(§2) Cell lines were grown in plastic dishes (Falcon) in Eagle's basal medium supplemented with 5% newborn calf serum (KB), Fisher's medium supplemented with 10% horse serum (L1210), Dulbecco's modified Eagle's medium supplemented with 5% heat-inactivated fetal calf serum (LoVo), minimal essential medium supplemented with 2% heat-inactivated chicken serum (HEp-2), RPMI-1640 supplemented with 10% heat-inactivated fetal calf serum (T-47D, COLO-201) or 20% heat-inactivated fetal calf serum (HL-60, KATO-III), or McCoy's 5A supplemented with 10% heat-inactivated fetal calf serum (HBL-100). All cell culture media were supplemented with 50 μg/ml gentamycin sulfate. The cultures were incubated at 37° C. in a humidified atmosphere containing 5% carbon dioxide.
(§3) Cultures were exposed to graded concentrations of tolytoxin and reincubated for 72 hours in the presence of tolytoxin. Three dishes were used for each treatment. Cell numbers were determined by hemacytometer counts. The IC50 for each cell line was determined by plotting the logarithm of the tolytoxin concentration versus growth (cell number as a percentage of the control) of the treated cells.
(§4) The other new scytophycin compounds are also potent cytotoxins. For example, the IC50 of the scytophycins against KB human epidermoid carcinoma, LoVo human adenocarcinoma, and L1210 murine leukemia were determined using the cell proliferation assay described for tolytoxin.

[2] = test system: Human ovarian carcinoma cells (SKOV3); test: cells; assay type: cell-based; conditions: SK-OV-3, Table 7, SKOV3, 48 hours, read-out: IC50 SKOV3
Method: Human ovarian carcinoma cells (SKOV3) and a subline made multi-drug resistant by slowly increasing vinblastine in the culture medium over the course of many passages (SKVLB) were grown in Earle's basal medium (BME) containing 10% fetal calf serum. The SKVLB cells were maintained in the presence of 1 µg/mL vinblastine. The multi-drug resistant cell line is resistant to adriamycin, vinblastine, actinomycin D, and colchicine.
Cell proliferation was estimated by measurement of protein content of the cultured cells, as described by Skehan et al. (1990). Cells were plated into 24-well plates at approximately 10% confluency in BME and were allowed to attach and recover for at least 24 hours. The cells were then treated with the scytophycins or appropriate control for 48 hours. After the incubation, the medium was removed from each well and cells fixed by addition of 10% (w/v) trichloroacetic acid (TCA) (4° C.). The cells were incubated at 4° C. for one hour and then washed five times with water to remove TCA. The TCA-fixed cells were then stained for 30 minutes with 0.4% (w/v) sulforhodamine B prepared in 1% acetic acid. Following the staining, the cell layers were washed four times with 1% acetic acid. The cell layer was dissolved in 10 mM unbuffered tris-hydroxymethylaminomethane base. Absorbance of the solution was determined at 564 nm. Antiproliferative activity is manifested as decreased production of cellular protein.

[3] = test system: LoVo human adenocarcinoma cells; test: Cell proliferation assay (cell counts), LoVo; assay type: cell-based; conditions: Table 6, read-out: IC50 LoVo
Method: as §1, §2, §3, §4

Saccharomyces cerevisae = test: Antifungal agar dilution; assay type: cell-based; conditions: Saccharomyces cerevisae; for IC50: Table 9
Method: (§5) The new scytophycins are also useful as antifungal agents. Antimicrobial activity was determined by the agar dilution method. Tolytoxin was dissolved in 95% ethanol for addition to cooled, molten agar. Nystatin was solubilized in DMSO and diluted in distilled water. Appropriate solvent controls were also prepared. Fungal cultures were grown on Saboraud dextrose agar. Assay plates were incubated for 48 hours post-inoculation. Yeasts and filamentous fungi were incubated at 25° C.
(§6) Activity was determined using the method described above for tolytoxin.

[4] = test system: Thielaviopsis paradoxa 1215; test: Antifungal agar dilution; assay type: cell-based; conditions: Thielaviopsis paradoxa 1215; for IC50: Table 9
Method: as §5, §6

[5] = test system: Phytophthora nicotianae H729; test: Antifungal agar dilution; assay type: cell-based; conditions: Phytophthora nicotianae H729
Method: as §5, §6

Candida albicans A26 = test: Antifungal agar dilution; assay type: cell-based
Method: as §5, §6

Sclerotium rofsii 2133 = test: Antifungal agar dilution; assay type: cell-based; conditions: Sclerotium rofsii 2133
Method: as §5, §6

[6] = test system: SKVLB (multi-drug resistant subline of SKOV3); test: cells; assay type: cell-based, Human; conditions: for IC50: Homo sapiens, 48 hours, read-out: IC50 SKVLB; for IC50 / Fold-Resistance: Table 7; for IC50 / resistance of the multi-drug resistant cell line: SKVLB; for Fold-Resistance: SKVLB vs SKOV3, 2880 min
[7] = test system: KB human epidermoid carcinoma cells; test: Cell proliferation assay (cell counts), KB; assay type: cell-based; conditions: Table 6, KB, read-out: IC50 KB
Method: as §1, §2, §3, §4

cellular sugar uptake = conditions: side effect; cited from earlier work
actin microfilaments = conditions: by binding to the end unit of growing actin microfilaments; cited from earlier work
Rhizoctonia solani 1165 = test: Antifungal agar dilution; assay type: cell-based; conditions: Table 8; Rhizoctonia solani 1165; 48 hours
Method: as §5

Aspergillus oryzae = test: Antifungal agar dilution; assay type: cell-based; conditions: Table 8, 48 hours
Method: as §5

[8] = test system: Colletotrichum coccodes 1809; test: Antifungal agar dilution; assay type: cell-based; conditions: Table 8; Colletotrichum coccodes 1809; 48 hours
Method: as §5

[9] = test system: Alternaria alternata 1715; test: Antifungal agar dilution; assay type: cell-based; conditions: Table 8; Alternaria alternata 1715; 48 hours
Method: as §5

Bipolaris incurvata 2118 = test: Antifungal agar dilution; assay type: cell-based; conditions: Table 8; Bipolaris incurvata 2118; 48 hours
Method: as §5

Penicillium notatum = test: Antifungal agar dilution; assay type: cell-based; conditions: Table 8; Penicillium notatum; 48 hours
Method: as §5

[10] = test system: Phyllosticta capitalensis 689-5; test: Antifungal agar dilution; assay type: cell-based; conditions: Table 8; Phyllosticta capitalensis 689-5; 48 hours
Method: as §5

[11] = test system: Calonectria critalarae 1809; test: Antifungal agar dilution; assay type: cell-based; conditions: Table 8; Calonectria critalarae 1809; 48 hours
Method: as §5

[12] = test system: Trichophyton mentagrophytes A23; test: Antifungal agar dilution; assay type: cell-based; conditions: Table 8; Trichophyton mentagrophytes A23; 48 hours
Method: as §5

[13] = Table 9, Candida albicans A26, read-out: IC50

SMILES	IC50 [1]	IC50 [2]	IC50 [3]	IC50 (Saccharomyces cerevisae)	IC50 [4]	MIC ([5]; Table 9, read-out: IC50)	MIC (Candida albicans A26; [13])	MIC (Sclerotium rofsii 2133; Table 9, read-out: IC50)	IC50 [6]	Fold-Resistance [6]	IC50 [7]	resistance of the multi-drug resistant cell line [6]	other results
COC1CC(OC)C2(CO2)C(OC)CC2CC=CC(CC(O)C(O)/C=C(C)/C=C/C(=O)OC(C(C)C(O)C(C)CCC(=O)C(C)C(OC)C(C)/C=C/N(C)C=O)C1C)O2 (centres unmarked) [6-Hydroxyscytophycin B]	0.011 µM	0.05 µM	0.0082 µM	0.1 µM	0.032 µM	64 nM (≈ 53.5 ng/mL)	200 nM (≈ 167 ng/mL)	16 nM (≈ 13.4 ng/mL)	0.15 µM	3	0.0036 µM	–	–
C=C1C(C)C2C(Cc3ccccc3)NC(=O)C23OC(=O)C=CC(O)CCCC(C)CC=CC3C1O (centres unmarked) [Cytochalasin B]	–	5 µM	–	–	–	–	–	–	30 µM	6	–	–	cellular sugar uptake (cellular sugar uptake): inhibits cellular sugar uptake; microfilament formation (actin microfilaments): inhibit microfilament formation
COc1cc2c(c(OC)c1OC)-c1ccc(OC)c(=O)cc1[C@@H](NC(C)=O)CC2 [colchicine]	–	–	–	–	–	–	–	–	–	–	–	resistant	–
COC1CC2CC=CC(CC(O)C/C=C(C)/C=C/C(=O)OC(C(C)C(O)C(C)CCC(=O)C(C)C(OC)C(C)/C=C/N(C)C=O)C(C)C(O)CC(OC)C1C)O2 (centres unmarked) [19-O-demethylscytophycin C]	0.0125 µM	0.025 µM	0.0029 µM	0.064 µM	0.016 µM	8 nM (≈ 6.34 ng/mL)	128 nM (≈ 101 ng/mL)	4 nM (≈ 3.17 ng/mL)	0.025 µM	1	0.0092 µM	–	–
CC[C@]1(O)C[C@@H]2CN(CCc3c([nH]c4ccccc34)[C@@](C(=O)OC)(c3cc4c(cc3OC)N(C)[C@H]3[C@@](O)(C(=O)OC)[C@H](OC(C)=O)[C@]5(CC)C=CCN6CC[C@]43[C@@H]65)C2)C1 [Vinblastine]	–	0.001 µM	–	–	–	–	–	–	10 µM	10,000	–	resistant	–
C[C@@H]1[C@H](O)[C@@H](C)/C=C/C=C/CC/C=C/C=C/C=C/C=C/C(O[C@H]2O[C@H](C)[C@@H](O)[C@H](N)[C@@H]2O)CC2O[C@](O)(CC(O)C(O)CCC(O)CC(O)CC(O)CC(=O)O[C@H]1C)CC(O)C2C(=O)O (some centres unmarked) [Nystatin, reference compound]	–	–	–	–	–	–	–	–	–	–	–	–	MIC (Rhizoctonia solani 1165): 0.0625 nM (≈ 0.0579 ng/mL); MIC (Aspergillus oryzae): 0.5 nM (≈ 0.463 ng/mL); MIC [8]: 0.25 nM (≈ 0.232 ng/mL); MIC [9]: 0.5 nM (≈ 0.463 ng/mL); MIC (Bipolaris incurvata 2118): 0.25 nM (≈ 0.232 ng/mL); MIC (Penicillium notatum): 0.125 nM (≈ 0.116 ng/mL); MIC [10]: 0.125 nM (≈ 0.116 ng/mL); MIC [11]: 0.25 nM (≈ 0.232 ng/mL); MIC [12]: 0.5 nM (≈ 0.463 ng/mL); MIC (Saccharomyces cerevisae; Table 8, 48 hours): 1 nM (≈ 0.926 ng/mL); MIC ([4]; Table 8, 48 hours): 0.5 nM (≈ 0.463 ng/mL); MIC ([5]; Table 8, 48 hours): 1 nM (≈ 0.926 ng/mL); MIC (Candida albicans A26; Table 8, Candids albicans A26, 48 hours): 1 nM (≈ 0.926 ng/mL); MIC (Sclerotium rofsii 2133; Table 8, 48 hours): 0.125 nM (≈ 0.116 ng/mL)
COc1cccc2c1C(=O)c1c(O)c3c(c(O)c1C2=O)C[C@@](O)(C(=O)CO)C[C@@H]3O[C@H]1C[C@H](N)[C@H](O)[C@H](C)O1 [Adriamycin]	–	0.4 µM	–	–	–	–	–	–	> 100 µM	> 250	–	resistant	–
COC1CC2C=CCC(CC(OC)C(CO)C(OC)CC(OC)C(C)C(C(C)C(O)C(C)CCC(=O)C(C)C(OC)C(C)/C=C/N(C)C=O)OC(=O)/C=C/C(C)=C/C1O)O2 (centres unmarked) [6-Hydroxy-7-O-methylscytophycin E, 6-hydroxy-7-O-methylscytophycin E]	0.0066 µM	0.1 µM	0.008 µM	0.064 µM	0.032 µM	16 nM (≈ 13.6 ng/mL)	64 nM (≈ 54.5 ng/mL)	16 nM (≈ 13.6 ng/mL)	0.3 µM	3	0.012 µM	–	–
Cc1c2oc3c(C)ccc(C(=O)N[C@@H]4C(=O)N[C@H](C(C)C)C(=O)N5CCC[C@H]5C(=O)N(C)CC(=O)N(C)[C@@H](C(C)C)C(=O)O[C@@H]4C)c3nc-2c(C(=O)N[C@@H]2C(=O)N[C@H](C(C)C)C(=O)N3CCC[C@H]3C(=O)N(C)CC(=O)N(C)[C@@H](C(C)C)C(=O)O[C@@H]2C)c(N)c1=O [actinomycin D] (I: T[dV]P[Sar][NMeV] / II: T[dV]P[Sar][NMeV]; ester I:1-I:C, II:1-II:C; linker I:N-II:N via Actinocin(9to1))	–	–	–	–	–	–	–	–	–	–	–	resistant	–
